Key:
mature B cells = assay: Apoptosis assay (propidium iodide flow cytometry) in mature B cells; assay type: cell-based, mouse; conditions: inhibitor added 15 minutes before stimulation with anti-Ig
Description: Purified populations of either immature B cells obtained from the spleens of day 14 autoreconstituting mice or mature B cells isolated from spleens of normal adult mice were incubated in the absence or presence of 50 μg/ml of rabbit anti-mouse IgM F(ab′)2 fragments (anti-Ig) for 16-18 hours. […] Similar results were observed using a modified TUNEL technique that detects nicked DNA.
The role of PKC in preventing BCR-induced apoptosis of immature B cells was also examined using inhibitors of PKC.
Purified B cells were cultured under various conditions overnight in either sterile 2 ml click-cap tubes or 96-well plates. PKC inhibitors were added 15 minutes before the addition of the stimulant. After 14-18 hours in the case of immature B cells or 24 hours in the case of mature B cells, the cells were harvested and washed in PBS containing 2% FCS. Cells were fixed and permeabilized by resuspending in 70% ethanol made in 1xPBS and incubating at −20° C. for at least 2 hours. […] The cells were stained at 4° C. overnight and analyzed by flow cytometry on a Becton Dickinson FACScan using LYSYS II software. The mean percentages of apoptotic cells and the standard errors for each culture condition were determined and significance was assessed by the Student's t-test.

immature B cells = assay: Apoptosis assay (relative DNA content, propidium iodide flow cytometry) in immature B cells; assay type: cell-based, mouse; conditions: late-stage immature B cells, 18 hours, anti-IgM F(ab′)2 50 μg/ml plus phorbol ester (PMA 10 ng/ml)
Description: Experiments were performed using an in vitro model system that makes use of an immature population of B cells purified from the spleens of adult mice after sublethal irradiation. Immature B cells obtained from these autoreconstituting mice are phenotypically immature and respond identically to immature B cells purified from either […] bone marrow (Norvell, A. et al. 1995. J. Immunol. 154:4404; Norvell, A. and J. G. Monroe. 1996. J. Immunol. 156:1328). This homogeneous population of immature B cells is devoid of pre-B cells and mature B cells found in neonatal spleen and adult bone marrow, respectively. Further, unlike the immature B cells purified from either bone marrow or neonatal spleen, immature B cells from autoreconstituting mice can be isolated without positive selection on anti-Ig panning plates. Since large numbers of unmanipulated immature B cells can be obtained, autoreconstituting B cells are an ideal system for analyzing biochemical events responsible for tolerogenic signal transduction. The B cells isolated from these mice represent a transitional stage of development in which cells are subject to negative selection. This in vitro system uses apoptosis as an indicator of negative selection.
Purified populations of either immature B cells obtained from the spleens of day 14 autoreconstituting mice or mature B cells isolated from spleens of normal adult mice were incubated in the absence or presence of 50 μg/ml of rabbit anti-mouse IgM F(ab′)2 fragments (anti-Ig) for 16-18 hours. […]
The ability of PMA to protect immature B cells from BCR-induced apoptosis was assessed in the presence of the same two inhibitors. […]
Purified B cells were cultured under various conditions overnight in either sterile 2 ml click-cap tubes or 96-well plates. […] The cells were stained at 4° C. overnight and analyzed by flow cytometry on a Becton Dickinson FACScan using LYSYS II software. The mean percentages of apoptotic cells and the standard errors for each culture condition were determined and significance was assessed by the Student's t-test.

[1] = tested on: PKC-depleted mature B cells; assay: Modified TUNEL analysis of PKC-depleted mature B cells; assay type: cell-based, mouse
Description: To assess the role of PKC activation in the prevention of antigen-mediated apoptosis, the ability of anti-Ig to induce apoptosis in PKC-depleted mature B cells was determined. […] After overnight treatment, the cells were washed expansively and subjected to an apoptotis analysis in which B cells were recultured with medium alone, anti-Ig, anti-Ig and PMA or anti-Ig and 4αPDD. After 8 hours incubation, the cells were harvested and subjected to a modified TUNEL analysis. […]. After PKC depletion, mature B cells were specifically susceptible to anti-Ig-mediated apoptosis.
In some cases, the frequency of apoptotic cells was quantitated using a modified TUNEL assay. Briefly, 1×10^6 cells were fixed in 2.5% formaldehyde in 1xPBS. The fixed cells were permeabilized in 0.2 ml 0.1% Triton/0.1% citrate for 2 minutes on ice. After washing, cells were incubated in 50 μl of nick translation reagent, which consists of 5 μl nick translation buffer (500 mM Tris, pH 7.5; 100 mM MgSO4; 1 mM DTT), 0.03 μl of fluorescein-dUTP (1 nmol/μl), 1 µl dTTP (0.7 nmol/μl), 1 μl each of dATP, dCTP, dGTP (1 nmol/μl) and 0.1 μl DNA polymerase (5 U/μl) and incubated for at least 1 hour at 37° C. Cells were then washed and analyzed by flow cytometry.

[2] = tested on: BCR-induced increase in intracellular calcium; assay: Measurement of intracellular calcium in Fura-2-AM loaded B cells; assay type: cell-based, mouse
Description: Since PMA was capable of rescuing mature, PKC-depleted B cells from anti-Ig-induced apoptosis, experiments were performed to assess whether PMA was capable of desensitizing the BCR in these cells.
Purified B cells were washed in HBSS without phenol red and supplemented with 2% FCS. For loading, cells were resuspended in HBSS without phenol red and supplemented with 10% FCS. Fura-2 acetoxymethyl ester was added to a final concentration of 1 μM from a 1 mM stock made in DMSO. Cells were incubated in light tight tubes for 30 minutes at 30° C. with occasional inversion. Cells were then washed twice with HEBSS+2% FCS and resuspended at a concentration of 3.3×10^7/ml in HBSS+10% FCS. Fluorometric analysis of dyed cells was performed using a luminescence spectrometer. Excitation was at 340 nm and 380 nM with emission monitored at 510 nm. B cells were diluted to 2×10^6/ml in HBSS and equilibrated for 2 minutes, at which time a baseline spectrum was read. The cells were stimulated with rabbit anti-mouse IgM F(ab′)2 fragments (50 μg/ml) and the response measured. Cells were then lysed with Triton X-100 and Fmax and Fmin were measured by the chelation of extracellular calcium with the addition of EGTA. Calcium traces were calculated by the Intracellular Biochemistry Application (Perkin-Elmer) using these values.

PKCβ = molecular target: T1, PKCβ (Mus musculus, UniProt P68404); assay: PKC depletion monitored by Western blot analysis; assay type: cell-based; conditions: PDBu-treated B cells
T1 construct: endogenous in cells; host or cells: primary mature splenic B cells of mice
T1 sequence (P68404 whole entry): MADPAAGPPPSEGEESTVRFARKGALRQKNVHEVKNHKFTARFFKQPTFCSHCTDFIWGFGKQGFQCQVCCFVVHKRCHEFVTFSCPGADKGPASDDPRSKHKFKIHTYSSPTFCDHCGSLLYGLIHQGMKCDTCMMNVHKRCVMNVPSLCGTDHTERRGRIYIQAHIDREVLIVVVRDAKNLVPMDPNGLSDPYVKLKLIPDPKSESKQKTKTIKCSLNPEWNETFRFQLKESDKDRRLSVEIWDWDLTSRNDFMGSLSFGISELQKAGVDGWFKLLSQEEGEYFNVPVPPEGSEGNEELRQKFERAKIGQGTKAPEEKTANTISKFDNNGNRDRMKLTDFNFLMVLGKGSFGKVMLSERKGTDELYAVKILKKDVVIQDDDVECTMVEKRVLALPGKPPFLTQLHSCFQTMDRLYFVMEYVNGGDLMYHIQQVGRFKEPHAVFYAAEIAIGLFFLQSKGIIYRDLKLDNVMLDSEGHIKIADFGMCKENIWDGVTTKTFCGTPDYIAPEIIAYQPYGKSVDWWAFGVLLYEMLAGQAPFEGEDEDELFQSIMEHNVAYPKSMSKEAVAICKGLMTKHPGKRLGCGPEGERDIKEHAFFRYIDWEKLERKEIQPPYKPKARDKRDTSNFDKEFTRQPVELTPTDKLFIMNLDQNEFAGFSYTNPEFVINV
Description: (§1) Therefore, experiments were performed to determine if PKC-depleted mature B cells were susceptible to BCR-induced apoptosis. […] PKC depletion in PDBu- or mock-treated cultures was monitored by Western blot analysis. […] PKC levels in unstimulated immature and mature cells were quite similar, making it unlikely that differential regulation of PKC activity would occur at the level of expression of the individual isoenzyes.
(§2) For analysis of postnuclear extracts, 1×10^7 cells were lysed in 50 μl of Triton-X lysis buffer (0.1% Triton-X-100; 100 mM Tris, pH 8.0; 10.8 μg/ml aprotinin; 1.5 μg/ml each of leupeptin, pepstatin A, chymostatin, and antipain; 2 mM phenylmethylsulfonyl fluoride; 1 mM N-ethylmaleimide) on ice for 30 minutes. Lysates were microcentrifuged at 14,000× g at 4° C. for 10 minutes to remove the Triton-X insoluble fraction. Lysates from equivalent cell numbers were fractionated on SDS-PAGE gels and electroblotted onto Immobilon (Millipore, Bedford, Mass.). Blots were incubated overnight in Tris-buffered saline with Tween-TBST (10 mM Tris, pH 8.0; 137 mM NaCl; 0.05% Tween 20) plus 2% bovine serum albumin to block nonspecific binding. Membranes were washed twice with TBST and probed with the appropriate antibody solutions for 90 minutes, then washed 3 times in TBST, followed by secondary incubation with the appropriate horseradish peroxidase-conjugated reagents. Three washes with TBST were conducted before detection with an enhanced chemiluminescence system.

PKCδ = molecular target: T2, PKCδ (Mus musculus, UniProt P28867); assay: PKC depletion monitored by Western blot analysis; assay type: cell-based; conditions: PDBu-treated B cells
T2 construct: endogenous in cells; host or cells: primary mature splenic B cells of mice
T2 sequence (P28867 whole entry): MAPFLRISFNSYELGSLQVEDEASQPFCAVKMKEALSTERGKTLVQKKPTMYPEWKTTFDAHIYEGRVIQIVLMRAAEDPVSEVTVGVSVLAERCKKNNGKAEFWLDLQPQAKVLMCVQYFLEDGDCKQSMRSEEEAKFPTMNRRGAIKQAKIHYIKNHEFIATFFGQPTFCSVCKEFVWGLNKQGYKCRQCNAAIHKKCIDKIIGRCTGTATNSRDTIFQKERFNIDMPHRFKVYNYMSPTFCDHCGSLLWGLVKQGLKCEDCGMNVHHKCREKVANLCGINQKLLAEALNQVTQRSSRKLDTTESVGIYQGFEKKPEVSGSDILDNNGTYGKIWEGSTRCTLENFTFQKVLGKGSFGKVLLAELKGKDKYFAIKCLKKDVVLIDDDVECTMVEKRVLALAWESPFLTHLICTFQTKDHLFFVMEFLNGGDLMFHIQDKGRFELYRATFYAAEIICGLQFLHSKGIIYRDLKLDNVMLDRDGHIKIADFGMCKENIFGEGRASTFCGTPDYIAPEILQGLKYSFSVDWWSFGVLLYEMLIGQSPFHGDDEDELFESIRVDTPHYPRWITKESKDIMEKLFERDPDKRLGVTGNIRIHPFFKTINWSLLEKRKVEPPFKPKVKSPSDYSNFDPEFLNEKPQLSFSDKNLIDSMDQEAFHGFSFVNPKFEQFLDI
Description: as §1, §2

PKCε = molecular target: T3, PKCε (Mus musculus, UniProt P16054); assay: PKC depletion monitored by Western blot analysis; assay type: cell-based; conditions: PDBu-treated B cells
T3 construct: endogenous in cells; host or cells: primary mature splenic B cells of mice
T3 sequence (P16054 1-737): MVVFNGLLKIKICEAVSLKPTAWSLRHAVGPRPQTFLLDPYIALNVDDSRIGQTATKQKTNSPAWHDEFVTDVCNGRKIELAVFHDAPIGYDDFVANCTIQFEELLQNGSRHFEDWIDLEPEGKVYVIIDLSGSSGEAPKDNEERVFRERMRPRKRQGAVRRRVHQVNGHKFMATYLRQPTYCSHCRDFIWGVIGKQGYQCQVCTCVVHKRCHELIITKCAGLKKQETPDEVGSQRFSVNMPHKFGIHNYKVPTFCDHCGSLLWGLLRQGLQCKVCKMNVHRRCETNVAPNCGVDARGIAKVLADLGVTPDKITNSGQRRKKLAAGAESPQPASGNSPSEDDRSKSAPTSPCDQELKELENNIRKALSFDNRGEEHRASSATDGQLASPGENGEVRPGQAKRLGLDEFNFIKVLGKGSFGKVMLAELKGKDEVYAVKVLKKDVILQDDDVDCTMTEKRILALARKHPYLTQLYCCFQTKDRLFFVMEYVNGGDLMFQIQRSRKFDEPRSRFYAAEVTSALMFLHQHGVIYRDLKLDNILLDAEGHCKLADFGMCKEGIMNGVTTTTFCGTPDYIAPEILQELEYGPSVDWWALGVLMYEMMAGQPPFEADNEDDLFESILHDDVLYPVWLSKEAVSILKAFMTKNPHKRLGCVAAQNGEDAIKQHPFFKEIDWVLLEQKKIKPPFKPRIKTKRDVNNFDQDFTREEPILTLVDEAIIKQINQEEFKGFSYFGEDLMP
Description: as §1, §2

SMILES: CN(C)C[C@H]1CCn2c(c(C3=C(c4cn(C)c5ccccc45)C(=O)NC3=O)c3ccccc32)C1 [Ro-32-0432]
- induction of apoptosis (mature B cells): led to induction of apoptosis

SMILES: CCCCCCCCCCCCCC(=O)O[C@@H]1[C@@H](C)[C@@]2(O)[C@@H](C=C(CO)C[C@]3(O)C(=O)C(C)=C[C@@H]23)[C@@H]2C(C)(C)[C@]12OC(C)=O [PMA]
- protection (rescue) from anti-IgM-induced apoptosis (immature B cells): significant protection from anti-IgM-induced apoptosis
- rescue from anti-Ig-induced apoptosis ([1]; PDBu-treated (PKC-depleted) mature B cells, anti-Ig and PMA, 8 hours): still capable of rescuing the cells from anti-Ig-induced apoptosis
- effect on BCR-induced calcium flux ([2]; PDBu-treated cells): did not alter the BCR-induced calcium flux
- effect on BCR-induced increase in intracellular calcium ([2]; mock-treated B cells): efficiently reduced the BCR-induced increase in intracellular calcium

SMILES: CCCCCCCCCC(=O)O[C@@H]1[C@@H](C)[C@@]2(O)[C@@H](C=C(CO)C[C@]3(O)C(=O)C(C)=C[C@@H]23)[C@@H]2C(C)(C)[C@]12OC(=O)CCCCCCCCC [4βPDD]
- protection (rescue) from anti-IgM-induced apoptosis (immature B cells): did not rescue cells

SMILES: CN(C)CCCn1cc(C2=C(c3c[nH]c4ccccc34)C(=O)NC2=O)c2ccccc21 [bisindoylmaleimide I]
- induction of apoptosis (mature B cells): led to induction of apoptosis

SMILES: CCCC(=O)O[C@@H]1[C@@H](C)[C@@]2(O)[C@@H](C=C(CO)C[C@]3(O)C(=O)C(C)=C[C@@H]23)[C@@H]2C(C)(C)[C@]12OC(=O)CCC [PDBu]
- number of apoptotic cells after anti-Ig ([1]; mature B cells cultured overnight with 100 ng/ml PDBu, washed, recultured 8 hours with anti-Ig): significant and striking increase in the number of apoptotic cells
- depletion of PKCβ (PKCβ): efficiently depleted
- depletion of PKCδ (PKCδ): also depleted, although not as efficiently
- depletion of PKCε (PKCε): also depleted, although not as efficiently

SMILES: CCCCCCCCCC(=O)O[C@@H]1[C@@H](C)[C@@]2(O)[C@@H](C=C(CO)C[C@@]3(O)C(=O)C(C)=C[C@@H]23)[C@@H]2C(C)(C)[C@]12OC(=O)CCCCCCCCC [4αPDD]
- protection (rescue) from anti-IgM-induced apoptosis (immature B cells): efficiently rescued cells
